Results published in PMC3843955 (Antiviral research, 2013).
Several values for one entry are separate records, joined by “and”; a condition that tells them apart may be missing. Equal entries are not always repeated. Where two headings read alike, the source gives them in different places.

How the values were obtained:
[1] = system: HCMV; test: HCMV inhibition across spread inhibition and yield reduction assays; conditions: TD50 versus anti-HCMV EC50
[2] = system: MRC-5 fibroblasts; test: CellTiter-Glo cytotoxicity assay, MRC-5; assay type: cell-based, human; conditions: uninfected MRC-5, ± standard deviation; for Yield inhibition MRC-5 TD50: CellTiter-Glo cytotoxicity assay after 5 d exposure to drugs; for Spread inhibition MRC-5 TD50: CellTiter-Glo cytotoxicity assay after 14 d exposure to drugs
[3] = human, in vivo; cited from earlier work
[4] = system: MCMV; conditions: sub-lethal MCMV infection in mice; ref Go et al., 2011; cited from earlier work
[5] = system: MCMV; conditions: read-out: EC50 for MCMV, cited from earlier work

Compound | cytotoxicity TD50 fold higher than antiviral EC50 [1] | Yield inhibition MRC-5 TD50 [2] | Spread inhibition MRC-5 TD50 [2] [µM] | peak plasma level [3] | viral load in livers and spleen [4] | EC50 ([5]; ref Go et al., 2011) [µM] | peak plasma concentration [3] [µM] | EC50 ([5]; ref Lembo et al., 2000) [µM]
O=C(NO)c1ccc(O)c(O)c1 [DX, didox] | 1.5- to 2 fold and 2 fold | 256 ± 5.7 µM | 146 ± 0.7 | approximately 300 µM | failed to decrease viral load in livers and spleen | 10 to 25 | – | –
NC(=O)NO [HU, hydroxyurea] | – | 14,500 ± 5400 µM | 4253 ± 701 | – | – | – | 264 to 660 | 3
N/C(=N\O)c1cc(O)c(O)c(O)c1 [TX, trimidox] | 1.5- to 2 fold and 2 fold | 166 ± 57 µM | 86 ± 4.2 | – | – | – | – | –
